Source: patent publication EP4803094A2, “GLP-1/GIP DUAL, GLP-1/GCG DUAL AND GLP-1/GIP/GCG TRIPLE RECEPTOR AGONISTS” (Sun Pharmaceutical Industries Limited, priority 2023, dated 2024)
Marks after values point to notes of the source that are not given here.

Experiments:
[1] = test system: Type 2 diabetes mouse (db/db) model; test: Efficacy study in db/db mice (blood glucose, body weight, food consumption); format: in vivo; conditions: 10 nM/kg s.c. single dose, mean (n=6)
Description: The effect of the compounds as described herein on blood glucose, food intake and body weight were studied in mice. This study was performed in Type 2 diabetes mouse (db/db) model. The animals were divided into 9 treatment groups (n=6): a diabetic control group, Compound 12 (10 nM/kg), Compound 13 (10 nM/kg), Compound 26 (10 nM/kg), Compound 14 (10 nM/kg), Compound 15 (10 nM/kg), Compound 21 (10 nM/kg), Compound 22 (10 nM/kg), and Tirzepatide (10 nM/kg). Baseline blood glucose was measured from all the animals. All the animals were administered with test item subcutaneously. Blood glucose was measured at 4 hr, 8 hr, 12 hr, 24 hr, 48 hr, 72 hr, and 96 hr post treatment. Delta blood glucose (mM) was calculated. Body weight changes and cumulative food consumption were measured at 48 hr and 96 hr post treatment. Table 3. Effect on Blood Glucose

GCGR = GCGR (Homo sapiens, UniProt P47871); test: Hit Hunter cAMP assay in cells stably expressing GCGR; format: cell-based; conditions: values in nM, read-out: EC50 value GCG
Excerpt: (§1) Stably expressing GLP-1R, GIPR or GCGR cell lines were used to determine in-vitro potency of the compounds as described herein. Signaling by the GLP-1R, GIP-R, and GCG-R involves activation of adenylate cyclase and cAMP production. Hit Hunter® cAMP assays monitor the activation of GLP-1R, GIPR or GCGR via Gi and Gs secondary messenger signaling using a technology developed by DiscoverX which is called Enzyme Fragment Complementation (EFC) with β-galactosidase (β-Gal) as the functional reporter. The enzyme is split into two complementary portions: EA for Enzyme Acceptor and ED for Enzyme Donor. ED is fused to cAMP and in the assay competes with cAMP generated by cells for binding to a cAMP-specific antibody. Active β-Gal is formed by complementation of exogenous EA to any unbound ED cAMP. Active enzyme can then convert a chemiluminescent substrate, generating an output signal detectable on a standard microplate reader. Three different assays were performed using cells expressing either of the three receptors. cAMP Hunter cell lines were expanded from freezer stocks according to standard procedures. […] Microplates were read following signal generation with a PerkinElmer EnvisionTM instrument for chemiluminescent signal detection. […] Four parametric logistic curve was generated and EC50 was determined. […]

GIPR = biological target: T1, GIPR (Homo sapiens, UniProt P48546); test: Hit Hunter cAMP assay in cells stably expressing GIPR; format: cell-based; conditions: values in nM, read-out: EC50 value GIP
T1 sequence (P48546 22-466): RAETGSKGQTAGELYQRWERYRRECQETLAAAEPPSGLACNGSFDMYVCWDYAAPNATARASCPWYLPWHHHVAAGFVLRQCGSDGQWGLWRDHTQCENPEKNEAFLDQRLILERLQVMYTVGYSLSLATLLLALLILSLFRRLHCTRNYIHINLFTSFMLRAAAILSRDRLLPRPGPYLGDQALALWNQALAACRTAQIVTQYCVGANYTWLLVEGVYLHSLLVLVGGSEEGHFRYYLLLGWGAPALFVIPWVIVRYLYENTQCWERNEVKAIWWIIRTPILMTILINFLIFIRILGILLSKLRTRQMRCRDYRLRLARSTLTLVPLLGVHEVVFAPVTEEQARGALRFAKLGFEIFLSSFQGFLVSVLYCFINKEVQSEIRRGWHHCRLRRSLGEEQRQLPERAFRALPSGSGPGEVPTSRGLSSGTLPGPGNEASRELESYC
Excerpt: as §1

GLP-1R = GLP-1R (Homo sapiens, UniProt P43220); test: Hit Hunter cAMP assay in cells stably expressing GLP-1R; format: cell-based; conditions: GLP-1R-expressing cells, values in nM
Excerpt: as §1

Chain of GCGR (P47871 26-477, species assumed): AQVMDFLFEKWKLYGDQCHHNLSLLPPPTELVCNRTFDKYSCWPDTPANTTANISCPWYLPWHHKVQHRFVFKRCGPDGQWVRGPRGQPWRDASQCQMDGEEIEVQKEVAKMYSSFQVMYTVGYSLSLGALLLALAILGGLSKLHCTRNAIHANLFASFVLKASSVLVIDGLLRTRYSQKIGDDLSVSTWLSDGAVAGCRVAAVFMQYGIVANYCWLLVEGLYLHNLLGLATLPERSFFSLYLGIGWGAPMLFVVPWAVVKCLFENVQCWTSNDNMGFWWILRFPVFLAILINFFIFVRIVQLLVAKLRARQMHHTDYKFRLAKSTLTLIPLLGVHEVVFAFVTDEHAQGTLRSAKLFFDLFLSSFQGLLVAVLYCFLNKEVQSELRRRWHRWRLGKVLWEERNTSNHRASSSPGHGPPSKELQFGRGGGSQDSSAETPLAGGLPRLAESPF
Chain of GLP-1R (P43220 24-463, species assumed): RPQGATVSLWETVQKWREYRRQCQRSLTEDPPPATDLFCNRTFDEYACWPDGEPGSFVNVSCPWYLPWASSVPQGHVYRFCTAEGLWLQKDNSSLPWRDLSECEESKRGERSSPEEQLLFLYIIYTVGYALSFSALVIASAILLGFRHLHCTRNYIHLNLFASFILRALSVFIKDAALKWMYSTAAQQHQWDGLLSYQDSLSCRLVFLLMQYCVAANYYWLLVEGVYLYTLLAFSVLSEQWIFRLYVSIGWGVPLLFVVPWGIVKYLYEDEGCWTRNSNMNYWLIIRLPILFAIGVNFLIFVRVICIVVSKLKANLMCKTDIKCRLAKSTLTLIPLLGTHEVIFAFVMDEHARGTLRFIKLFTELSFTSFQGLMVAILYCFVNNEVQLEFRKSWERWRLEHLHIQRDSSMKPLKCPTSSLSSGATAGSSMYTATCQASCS

CC[C@H](C)[C@H](NC(=O)[C@H](Cc1ccccc1)NC(=O)[C@H](C)NC(=O)C(C)(C)NC(=O)[C@H](CCC(N)=O)NC(=O)[C@H](C)NC(=O)[C@H](CCCCNC(=O)COCCOCCNC(=O)C(C)(C)NC(=O)CC[C@H](NC(=O)CCCCCCCCCCCCCCCCCCC(=O)O)C(=O)O)NC(=O)[C@H](CCCCN)NC(=O)[C@H](CC(=O)O)NC(=O)[C@H](CC(C)C)NC(=O)[C@](C)(CC(C)C)NC(=O)[C@@H](NC(=O)[C@H](CO)NC(=O)[C@H](Cc1ccc(O)cc1)NC(=O)[C@H](CC(=O)O)NC(=O)[C@H](CO)NC(=O)[C@@H](NC(=O)[C@H](Cc1ccccc1)NC(=O)[C@@H](NC(=O)CNC(=O)[C@H](CCC(N)=O)NC(=O)C(C)(C)NC(=O)[C@@H](N)Cc1ccc(O)cc1)[C@@H](C)O)[C@@H](C)O)[C@@H](C)CC)C(=O)N[C@@H](CCC(=O)O)C(=O)N[C@@H](Cc1ccc(O)cc1)C(=O)N[C@@H](CC(C)C)C(=O)N[C@@H](CC(C)C)C(=O)N[C@@H](CCC(=O)O)C(=O)NCC(=O)NCC(=O)N1CCC[C@H]1C(=O)N[C@@H](CO)C(=O)N[C@@H](CO)C(=O)NCC(=O)N[C@@H](C)C(=O)N1CCC[C@H]1C(=O)N1CCC[C@H]1C(=O)N1CCC[C@H]1C(=O)N[C@@H](CO)C(N)=O [Compound 13]
Cumulative Food Consumption (g) 0-48 hr ([1]; 0-48 hr): 4.1*** g | Cumulative Food Consumption (g) 0-96 hr ([1]; 0-96 hr): 11.2*** g | Delta Blood Glucose (mM) ([1]; 4 hr post treatment): -7.4* mM | Delta Blood Glucose ([1]; 8 hr post treatment): -5.7 mM | Delta Blood Glucose (mM) ([1]; 12 hr post treatment): -9.4** mM | Delta Blood Glucose (mM) ([1]; 24 hr post treatment): -14.4*** mM | Delta Blood Glucose (mM) ([1]; 48 hr post treatment): -13.9*** mM | Body Weight Change (%) 48 hr ([1]; 48 hr): -10.3*** % | Delta Blood Glucose (mM) ([1]; 72 hr post treatment): -12.1*** mM | Delta Blood Glucose ([1]; 96 hr post treatment): -5.6 mM | Body Weight Change (%) 96 hr ([1]; 96 hr): -6.3*** % | EC50 (GCGR): > 1.8 nM | EC50 (GIPR): > 1.5 nM | EC50 (GLP-1R): > 2.4 nM
